Reference: PubChem BioAssay AID248 (DTP/NCI, 2004)
Toxic doses and inconclusive results are not listed. Cut-off read from the data, not from the text of the source: active = T/C of 150% or more; inactive = T/C below 125%.

System: L1210 leukemia ip in BDF1 mice, survival T/C
Experiment: NCI In Vivo Anticancer Drug Screen. Data for tumor model L1210 Leukemia (intraperitoneal) in B6D2F1 (BDF1) mice
Settings: endpoint: mean survival time, higher = longer survival
Summary of the method: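 Tumor was transplanted into mice, which were then dosed with test compound or vehicle alone. Survival was recorded for each group, and the treated figure was expressed relative to the control figure.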

[1] = dose: 100.0 mg/kg/injection, schedule: Q01DX001 (ip), vehicle: Klucel (hydroxypropylcellulose) (HPC)
[2] = dose: 200.0 mg/kg/injection, schedule: Q01DX001 (ip), vehicle: Klucel (hydroxypropylcellulose) (HPC)
[3] = dose: 100.0 mg/kg/injection, schedule: Q01DX001 (ip), vehicle: carboxymethylcellulose (CMC)
[4] = dose: 200.0 mg/kg/injection, schedule: Q01DX001 (ip), vehicle: carboxymethylcellulose (CMC)
[5] = dose: 400.0 mg/kg/injection, schedule: Q01DX001 (ip), vehicle: carboxymethylcellulose (CMC)
[6] = dose: 100.0 mg/kg/injection, schedule: Q04DX003 (ip), vehicle: Klucel (hydroxypropylcellulose) (HPC)
[7] = dose: 200.0 mg/kg/injection, schedule: Q04DX003 (ip), vehicle: Klucel (hydroxypropylcellulose) (HPC)
[8] = dose: 400.0 mg/kg/injection, schedule: Q04DX003 (ip), vehicle: Klucel (hydroxypropylcellulose) (HPC)
[9] = dose: 100.0 mg/kg/injection, schedule: Q01DX001 (ip), vehicle: saline
[10] = dose: 200.0 mg/kg/injection, schedule: Q01DX001 (ip), vehicle: saline
[11] = dose: 400.0 mg/kg/injection, schedule: Q01DX001 (ip), vehicle: saline

Measured: T/C

CCOC(=O)C(=O)c1c(C)[nH]c(C(=O)OCC)c1C
inactive: dose: 25.0 mg/kg/injection, schedule: Q04DX003 (ip), vehicle: saline 104 % of control | dose: 50.0 mg/kg/injection, schedule: Q04DX003 (ip), vehicle: saline 93 % of control | [1] 95 % of control | dose: 100.0 mg/kg/injection, schedule: Q04DX003 (ip), vehicle: saline 98 % of control | [2] 97 % of control | dose: 400.0 mg/kg/injection, schedule: Q01DX001 (ip), vehicle: Klucel (hydroxypropylcellulose) (HPC) 101 % of control

Brc1cc(Br)c2[nH]c(-c3ccccc3)cc2c1
inactive: [3] 95 % of control | [4] 90 % of control | [5] 88 % of control

COC(OC)c1[nH]c(=S)[nH]c(=O)c1Cc1ccccc1Cl
inactive: dose: 100.0 mg/kg/injection, schedule: Q04DX002 (ip), vehicle: Klucel (hydroxypropylcellulose) (HPC) 97 % of control | dose: 200.0 mg/kg/injection, schedule: Q04DX002 (ip), vehicle: Klucel (hydroxypropylcellulose) (HPC) 97 % of control | dose: 400.0 mg/kg/injection, schedule: Q04DX002 (ip), vehicle: Klucel (hydroxypropylcellulose) (HPC) 105 % of control

NC(=O)C/C=C/CC(N)=O
inactive: [6] 102 % of control | [7] 102 % of control | [8] 102 % of control

c1ccc2cc(N=Nc3ccc4ccccc4c3)ccc2c1
inactive: dose: 100.0 mg/kg/injection, schedule: Q01DX009 (ip), vehicle: Klucel (hydroxypropylcellulose) (HPC) 98 % of control | [6] 95 % of control | dose: 200.0 mg/kg/injection, schedule: Q01DX009 (ip), vehicle: Klucel (hydroxypropylcellulose) (HPC) 97 % of control | [7] 92 % of control | dose: 400.0 mg/kg/injection, schedule: Q01DX009 (ip), vehicle: Klucel (hydroxypropylcellulose) (HPC) 102 % of control | [8] 94 % of control

Nc1ccc(Cl)nc1
inactive: dose: 50.0 mg/kg/injection, schedule: Q01DX001 (ip), vehicle: saline 98 % of control | [9] 98 % of control | [10] 102 % of control | [11] 96 % of control

O=C(CCN1CCOCC1)c1csc2ccccc12
inactive: [3] 102 % of control | [4] 102 % of control | [5] 96 % of control

COc1ccc(NN=Nc2ccccc2C#N)cc1
inactive: [6] 106 % of control | [7] 100 % of control | [8] 108 % of control

O=C(OCCOc1ccccc1)c1ccc([N+](=O)[O-])cc1
inactive: [9] 100 % of control | [10] 98 % of control | [11] 116 % of control

Cc1nc(C#N)c(C#N)nc1C
inactive: dose: 6.25 mg/kg/injection, schedule: Q01DX009 (ip), vehicle: Klucel (hydroxypropylcellulose) (HPC) 96 % of control | dose: 12.5 mg/kg/injection, schedule: Q01DX009 (ip), vehicle: Klucel (hydroxypropylcellulose) (HPC) 98 % of control | dose: 12.5 mg/kg/injection, schedule: Q04DX003 (ip), vehicle: Klucel (hydroxypropylcellulose) (HPC) 101 % of control | dose: 25.0 mg/kg/injection, schedule: Q04DX003 (ip), vehicle: Klucel (hydroxypropylcellulose) (HPC) 100 % of control

O=C1OCCN1N1C(=O)CC2(CCCCC2)C1=O
inactive: dose: 50.0 mg/kg/injection, schedule: Q01DX001 (ip), vehicle: Klucel (hydroxypropylcellulose) (HPC) 100 % of control | [1] 107 % of control | [2] 97 % of control

O=C(N/N=C/c1ccc(Cl)cc1)C(O)(c1ccccc1)c1ccccc1
inactive: dose: 100.0 mg/kg/injection, schedule: Q01DX009 (ip), vehicle: saline with Tween-80 88 % of control | dose: 400.0 mg/kg/injection, schedule: Q01DX009 (ip), vehicle: saline with Tween-80 102 % of control

O=C1c2ccccc2C(=O)N1CCCCCCN1C(=O)c2ccccc2C1=O
inactive: dose: 100.0 mg/kg/injection, schedule: Q04DX002 (ip), vehicle: gum acacia 96 % of control | dose: 200.0 mg/kg/injection, schedule: Q04DX002 (ip), vehicle: gum acacia 107 % of control | dose: 400.0 mg/kg/injection, schedule: Q04DX002 (ip), vehicle: gum acacia 101 % of control

CN(C=O)c1ccc(C(=O)NC(CC(=O)O)CC(=O)O)cc1
inactive: [9] 111 % of control | [10] 94 % of control | [11] 103 % of control
